# Experimental data published in patent US8258140B2 (Astrazeneca AB, priority 2009, dated 2012).
# Biological target: T1, Androgen Receptor (AR) in the LNCaP prostate carcinoma cell line (Homo sapiens, UniProt P10275, T878A)
# T1 construct: cell based immuno-fluorescence assay using the LNCaP prostate epithelial cell line; host or cells: LNCaP clone FGC
# T1 sequence (P10275 1-920 T878A): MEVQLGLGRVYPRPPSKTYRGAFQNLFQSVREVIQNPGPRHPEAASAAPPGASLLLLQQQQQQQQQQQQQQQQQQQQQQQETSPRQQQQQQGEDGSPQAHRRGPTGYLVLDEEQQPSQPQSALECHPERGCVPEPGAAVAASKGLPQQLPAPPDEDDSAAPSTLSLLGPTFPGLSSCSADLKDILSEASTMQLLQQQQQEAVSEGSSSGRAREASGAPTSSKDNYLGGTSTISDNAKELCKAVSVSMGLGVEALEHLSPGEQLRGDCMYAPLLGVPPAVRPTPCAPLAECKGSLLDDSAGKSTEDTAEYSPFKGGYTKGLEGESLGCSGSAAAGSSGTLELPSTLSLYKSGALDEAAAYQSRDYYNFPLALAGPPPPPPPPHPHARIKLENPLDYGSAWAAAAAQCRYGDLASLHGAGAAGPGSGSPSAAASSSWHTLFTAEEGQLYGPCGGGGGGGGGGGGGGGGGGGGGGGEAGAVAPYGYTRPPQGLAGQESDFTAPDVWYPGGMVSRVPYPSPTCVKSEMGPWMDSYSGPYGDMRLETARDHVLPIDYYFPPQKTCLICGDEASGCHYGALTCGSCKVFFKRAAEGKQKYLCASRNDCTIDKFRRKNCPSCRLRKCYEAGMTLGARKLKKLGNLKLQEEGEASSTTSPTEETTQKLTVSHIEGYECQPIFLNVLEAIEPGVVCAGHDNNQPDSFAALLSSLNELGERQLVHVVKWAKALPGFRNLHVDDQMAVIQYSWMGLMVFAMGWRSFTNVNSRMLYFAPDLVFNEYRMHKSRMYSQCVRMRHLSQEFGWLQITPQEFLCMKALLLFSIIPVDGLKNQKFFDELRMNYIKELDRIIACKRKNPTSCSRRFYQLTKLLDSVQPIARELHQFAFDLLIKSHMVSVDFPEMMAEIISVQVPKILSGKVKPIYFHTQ
# Assay: LNCaP Androgen Receptor Down-Regulation Cell Assay (immunofluorescence end point)
# Type: cell-based
# Details: LNCaP cells, compound incubation 20-22 hours, concentration giving 50% reduction of the AR signal
# Description: The ability of compounds to reduce Androgen Receptor (AR) numbers was assessed in a cell based immuno-fluorescence assay using the LNCaP prostate epithelial cell line.
# This immunofluorescence end point assay measures the ability of a test compound to down-regulate and reduce measured levels of the AR in the LNCaP prostate carcinoma cell line (LNCaP clone FGC (CRL-1740) obtained from the American Type Culture Collection (ATCC)).
# LNCaP cells were cultured in Growth Medium (phenol red free Roswell Park Memorial Institute (RPMI) 1640 (Invitrogen Code no. 11835-063) containing 2 mM L-Glutamine (Invitrogen Code no. 25030-024) and 1% (v/v) Penicillin/Streptomycin (10000 units/ml Penicillin and 10000 μg/ml of Streptomycin utilising penicillin G (sodium salt) and streptomycin sulphate: prepared in normal saline, Invitrogen Code no. 15140122) and 10% (v/v) foetal bovine serum (FBS)) in a 5% CO2 air incubator at 37° C. Cells for assay were harvested from T175 stock flasks by washing once in PBS (phosphate buffered saline, pH 7.4) (Invitrogen Code no. 14190-094) and harvested using 5 mls of 1× Trypsin/ethylaminediaminetetraacetic acid (EDTA) (10× Trypsin-EDTA, 5.0 g/L Trypsin, 2.0 g/L of EDTA.4Na and 8.5 g/L of NaCl, without Phenol Red, Invitrogen Code no. 15400-054) diluted in PBS solution. A 5 ml volume of Growth Medium was added to each flask (as above except that 5% (v/v) charcoal stripped FBS (HyClone Code no. SH30068.03) was included instead of 10% (v/v) FBS). Cells were syringed at least twice using a sterile 18 G×1.5″ (1.2×40 mm) broad gauge needle and cell density was measured using a haemocytometer. Cells were further diluted in Growth Medium plus 5% (v/v) charcoal stripped FBS and seeded at a density of 6.5×10^3 cells per well (in 90 ul) into transparent, black, tissue culture treated 96 well plates (Packard, No. 6005182).
# Test data reported herein was generated using two different compounds preparation and dosing methods. In method (1) a 10 mM compound stock solution in 100% (v/v) DMSO was serially diluted in 4-fold steps in 100% (v/v) DMSO using a Thermo Scientific Matrix SerialMate. The diluted compounds were then further diluted 1 in 30 in assay media using a Thermo Scientific Matrix PlateMate and a 10 μl aliquot of this dilution was dosed to cells manually using a multi-channel pipette. In method (2) starting with a 10 mM compound stock solution, the Labcyte Echo 550 was used to generate a compound concentration response set diluted in 30 μl of assay media. The Echo 550 is a liquid handler that uses acoustic technology to perform direct microplate-to-microplate transfers of DMSO compound solutions. The system can be programmed to transfer volumes as low as 2.5 nL in multiple increments between microplates and in so doing generates a serial dilution of compound which is then back-filled to normalise the DMSO concentration across the dilution range. A 10 μl volume of diluted compound is then dosed to cells using a Thermo Scientific Matrix PlateMate.
# Plates were incubated overnight at 37° C., 5% CO2. Wells were then dosed with compound prepared by one of the 2 methods above and further incubated for 20-22 hours at 37° C., 5% CO2. Plates were fixed by the addition of 20 μl of 10% (v/v) formaldehyde solution (in PBS) to each well (final formaldehyde conc.=1.67% (v/v)) and left at room temperature for 10 mins. This fixative solution was removed and cells were washed with 250 μl of PBS/0.05% (v/v) Tween 20 (PBST) using an automated plate washer. This process was then repeated twice more.
# Immunostaining was performed at room temperature. Cells were permeabilised by the addition of 35 μl of PBS containing 0.5% Tween 20 and incubated for 1 hour at room temperature. Permeabilisation solution was removed and cells were washed with 250 μl of PBST using an automated plate washer. This process was then repeated twice more. […]
row,SMILES,IC50
1,"CC(=O)N1CCN(CCOc2ccc(N3CCN(C4=Nn5c(nnc5C(F)(F)F)CC4)CC3)cc2)CC1 [Example 32, 6-(4-{4-[2-(4-acetylpiperazin-1-yl)ethoxy]phenyl}piperazin-1-yl)-3-(trifluoromethyl)-7,8-dihydro[1,2,4]triazolo[4,3-b]pyridazine]",20 µM
2,"CCCCC(=O)N1CCN(CCOc2ccc(N3CCN(C4=Nn5c(nnc5C(F)(F)F)CC4)CC3)cc2)CC1 [Example 33, 6-(4-{4-[2-(4-pentanoylpiperazin-1-yl)ethoxy]phenyl}piperazin-1-yl)-3-(trifluoromethyl)-7,8-dihydro[1,2,4]triazolo[4,3-b]pyridazine]",7.8 µM
3,"CS(=O)(=O)N1CCN(CCOc2ccc(N3CCN(C4=Nn5c(nnc5C(F)(F)F)CC4)CC3)cc2)CC1 [Example 34, 6-[4-(4-{2-[4-(methylsulfonyl)piperazin-1-yl]ethoxy}phenyl)piperazin-1-yl]-3-(trifluoromethyl)-7,8-dihydro[1,2,4]triazolo[4,3-b]pyridazine]",23 µM
4,"FC(F)(F)CCCOc1ccc(C2CCN(C3=Nn4c(nnc4C(F)(F)F)CC3)CC2)cc1 [Example 35, 6-{4-[4-(4,4,4-trifluorobutoxy)phenyl]piperidin-1-yl}-3-(trifluoromethyl)-7,8-dihydro[1,2,4]triazolo[4,3-b]pyridazine]",2.3 µM
5,"Cn1nccc1CCOc1ccc(C2(O)CCN(C3=Nn4c(nnc4C(F)(F)F)CC3)CC2)cc1 [Example 36, 4-{4-[2-(1-methyl-1H-pyrazol-5-yl)ethoxy]phenyl}-1-[3-(trifluoromethyl)-7,8-dihydro[1,2,4]triazolo[4,3-b]pyridazin-6-yl]piperidin-4-ol]",4.5 µM
6,"CCc1nccn1CCOc1ccc(N2CCN(C3=Nn4c(nnc4C(F)(F)F)CC3)CC2)cc1 [Example 39, 6-(4-{4-[2-(2-ethyl-1H-imidazol-1-yl)ethoxy]phenyl}piperazin-1-yl)-3-(trifluoromethyl)-7,8-dihydro[1,2,4]triazolo[4,3-b]pyridazine]",4.8 µM
7,"FC(F)(F)c1ccn(CCOc2ccc(N3CCN(C4=Nn5c(nnc5C(F)(F)F)CC4)CC3)cc2)n1 [Example 40, 3-(trifluoromethyl)-6-[4-(4-{2-[3-(trifluoromethyl)-1H-pyrazol-1-yl]ethoxy}phenyl)piperazin-1-yl]-7,8-dihydro[1,2,4]triazolo[4,3-b]pyridazine]",1.5 µM

# Other lines, results leading:
row,IC50,SMILES
1,0.66 µM,"CCc1nccn1CCOc1ccc(C2CCN(C3=Nn4c(nnc4C(F)(F)F)CC3)CC2)cc1 [Example 42, 6-(4-{4-[2-(2-ethyl-1H-imidazol-1-yl)ethoxy]phenyl}piperidin-1-yl)-3-(trifluormethyl)-7,8-dihydro[1,2,4]triazolo[4,3-b]pyridazine]"
2,1 µM,"Cc1cc(C)n(CCOc2ccc(C3CCN(C4=Nn5c(nnc5C(F)(F)F)CC4)CC3)cc2)n1 [Example 43, 6-(4-{4-[2-(3,5-dimethyl-1H-pyrazol-1-yl)ethoxy]phenyl}piperidin-1-yl)-3-(trifluoromethyl)-7,8-dihydro[1,2,4]triazolo[4,3-b]pyridazine]"
3,0.55 µM,"FC(F)(F)c1ccn(CCOc2ccc(C3CCN(C4=Nn5c(nnc5C(F)(F)F)CC4)CC3)cc2)n1 [Example 44, 3-(trifluoromethyl)-6-[4-(4-{2-[3-(trifluoromethyl)-1H-pyrazol-1-yl]ethoxy}phenyl)piperidin-1-yl]-7,8-dihydro[1,2,4]triazolo[4,3-b]pyridazine]"
4,12 µM,"CC(=O)N1CCN(CCOc2ccc(C3(O)CCN(C4=Nn5c(nnc5C(F)(F)F)CC4)CC3)cc2)CC1 [Example 45, 4-{4-[2-(4-acetylpiperazin-1-yl)ethoxy]phenyl}-1-[3-(trifluoromethyl)-7,8-dihydro[1,2,4]triazolo[4,3-b]pyridazin-6-yl]piperidin-4-ol]"
5,1.5 µM,"CCN1CCN(CCOc2ccc(C3CCN(C4=Nn5c(nnc5C(F)(F)F)CC4)CC3)cc2)CC1=O [Example 46, 1-ethyl-4-[2-(4-{1-[3-(trifluoromethyl)-7,8-dihydro[1,2,4]triazolo[4,3-b]pyridazin-6-yl]piperidin-4-yl}phenoxy)ethyl]piperazin-2-one]"
6,1.4 µM,"O=C1CN(CCOc2ccc(C3CCN(C4=Nn5c(nnc5C(F)(F)F)CC4)CC3)cc2)CCN1C1CC1 [Example 47, 1-cyclopropyl-4-[2-(4-{1-[3-(trifluoromethyl)-7,8-dihydro[1,2,4]triazolo[4,3-b]pyridazin-6-yl]piperidin-4-yl}phenoxy)ethyl]piperazin-2-one]"
7,0.7 µM,"CC(=O)N1CCCN(CCOc2ccc(C3CCN(C4=Nn5c(nnc5C(F)(F)F)CC4)CC3)cc2)CC1 [Example 48, 6-(4-{4-[2-(4-acetyl-1,4-diazepan-1-yl)ethoxy]phenyl}piperidin-1-yl)-3-(trifluoromethyl)-7,8-dihydro[1,2,4]triazolo[4,3-b]pyridazine]"
8,0.045 µM,"C[C@@H]1C(=O)N(C)CCN1CCOc1ccc(C2CCN(C3=Nn4c(nnc4C(F)(F)F)CC3)CC2)cc1 [Example 49, (3R)-1,3-dimethyl-4-[2-(4-{1-[3-(trifluoromethyl)-7,8-dihydro[1,2,4]triazolo[4,3-b]pyridazin-6-yl]piperidin-4-yl}phenoxy)ethyl]piperazin-2-one]"
9,0.76 µM,"C[C@H]1C(=O)N(C)CCN1CCOc1ccc(C2CCN(C3=Nn4c(nnc4C(F)(F)F)CC3)CC2)cc1 [Example 50, (3S)-1,3-dimethyl-4-[2-(4-{1-[3-(trifluoromethyl)-7,8-dihydro[1,2,4]triazolo[4,3-b]pyridazin-6-yl]piperidin-4-yl}phenoxy)ethyl]piperazin-2-one]"
10,0.32 µM,"CC(=O)N1CCN(CCOc2ccc(C3CCN(C4=Nn5c(nnc5C(F)(F)F)CC4)CC3)cc2)C[C@@H]1C [Example 52, 6-[4-(4-{2-[(3S)-4-acetyl-3-methylpiperazin-1-yl]ethoxy}phenyl)piperidin-1-yl]-3-(trifluoromethyl)-7,8-dihydro[1,2,4]triazolo[4,3-b]pyridazine]"
